The values below come from patent US20200163913A1 (Shanghai Huali Biomedical Co., Ltd., priority 2017, published 2020).

The structures appear in SMILES notation. Read-outs that look alike come from different tables or passages of the source. Bounds are passed on as bounds.

Series [1] deals with human gastric cancer cell MKN45. Put plainly: CCK-8 cell proliferation inhibition, MKN45. The series is classed as cell-based. The settings on record: read-out: IC50 MKN45. As to the method:
(§1) Take more than 90% of live cells for experiments. Cell proliferation inhibition test uses EnoGeneCell™ Counting Kit-8 (CCK-8) cell viability detection kit. Cells are digested and counted to make a cell suspension with a concentration of 1×10^5 cells/mL, 100 μL of cell suspension (1×10^4 cells per well) was added to each well of a 96-well plate; Incubate in a 5% CO2 incubator for 24 hours; add 100 μL of the corresponding drug-containing culture medium to each well, and set a negative control group, a vehicle control group, and a positive control group, with 5 replicates in each group; place the 96-well plate at 37° C.

A further series relates to sarcoma S180. Put plainly: Tumor inhibition rate on sarcoma S180 mouse transplantation tumor. The settings on record: for tumor observation: 8th day after administration; for Inhibition rate (tumor weight): dose 25 mg/kg, d0-d12 7 times, sacrifice day 14. The series is classed as in vivo, mice. The text has this: After 1 week of adaptation, the mice were inoculated subcutaneously with sarcoma S180 tumor tissue. After the tumor grew 100-300 mm3, the animals were randomly divided into groups.

A further series has as its target Arylsulfatase. Nature of the series: Arylsulfatase activity assay in vitro. The series is classed as biochemical. The following applies: p-nitrophenyl sulfate substrate, 405 nm; read-out: IC50 sulfatase. As to the method:
Weigh an appropriate amount of the test compound and dissolve it in dimethyl sulfoxide. Dilute it with Tris-HCl buffer for 2, 5, 10, 20, 50, 100, 200, 500, 1000, 2000, 5000, and 10,000 times. Add another dilution gradient to the sample. Arylsulfatase and potassium p-nitrophenyl sulfate are directly dissolved in Tris-HCl buffer. 40 μL of the test compound, 50 μL of arylsulfatase and 50 μL of potassium p-nitrobenzene sulfate were added to a 96-well plate for reaction. A blank control without enzymes and a standard control without test compounds are used. The volume is made up with Tris-HCl buffer. 405 nm detection in the microplate reader, each sample is measured for 40 times, and the interval is 30 s. The representative time node within the time period with good linearity of the absorbance value are selected for data analysis. The measured absorbance value are subtracted from the background value of the blank control and the initial value when the reaction time are 0. For comparison, calculate the inhibition rate at different concentrations, and use the built-in forecast function of excel to predict the IC50 value.

The nature of series [2]: Acute toxicity test of single intragastric administration of mice. The following applies: both sexes, Kunming, mouse, in vivo, po, 14 days observation. The method, then: Kunming mice (body weight: 17-22 g, male and female), randomly divided according to body weight. […] The doses were 150, 130, 120, 110, 100, 90, 80, 70, 60, 50, 40, 30 mg/kg by single intragastric administration, 0.25 h, 0.5 h, 1 h, 2 h after administration Observe once every 4 h, 24 h, and then record the mortality, then observe it once a day, record the mortality for 14 days, and sacrifice the undead mice on the 15th day for pathological dissection.

For series [3], the system named is human cervical cancer cell HeLa. Nature of the series: CCK-8 cell proliferation inhibition, HeLa. It counts as cell-based. The method, then:
as §1

In the next series the test system is Tubulin. Put plainly: Tubulin polymerization activity test. It counts as biochemical. The following applies: tubulin 4.8 mg/ml, 37° C., 340 nm; read-out: IC50 (Table 3, tubulin polymerization test). The method, then: Tubulin (4.8 mg/ml) protein was mixed with the test compound in a PEM buffer (100 mM PIPES, 1 mM MgCl2 and 1 mM EGTA) containing 1 mM GTP and 5% glycerol. A SPECTRA MAX 190 (Molecular Device) spectrophotometer was used to monitor the microtubule polymerization at 37° C. by light scattering at 340 nm, and the microtubule polymerization was calculated from the absorbance value. Each sample was tested three times at ten different concentrations.

The test system of series [4] is human liver cancer cell HepG2. Nature of the series: CCK-8 cell proliferation inhibition, HepG2. The series is classed as cell-based. The settings on record: read-out: IC50 HepG2. The method, then:
as §1

The test system of series [5] is human gastric cancer cell MGC-803. Put plainly: CCK-8 cell proliferation inhibition, MGC-803. The series is classed as cell-based. The following applies: read-out: IC50 MGC803. The method, then:
as §1

Series [6] has as its system human lung cancer cell A549. Put plainly: CCK-8 cell proliferation inhibition, A549. The series is classed as cell-based. The method, then: as §1
Series [7] relates to human colon cancer cell HCT-116. Put plainly: CCK-8 cell proliferation inhibition, HCT-116. It counts as cell-based. As to the method: as §1
The mark [8] stands for this setting: Homo sapiens, HeLa, 72 h, CCK-8, 72 h, read-out: IC50 Hela.
The mark [9] stands for this setting: Homo sapiens, HeLa, read-out: IC50 HeLa.
The mark [10] stands for this setting: Homo sapiens, HepG2, 72 h, CCK-8, 72 h.
The mark [11] stands for this setting: Homo sapiens, HepG2, running text.
Where [12] appears, read: A549, CCK-8, 72 h, read-out: IC50 A549.
[13] abbreviates: Homo sapiens, HCT-116, 72 h, CCK-8, 72 h, read-out: IC50 HTC116.
Setting [14] is: Homo sapiens, HCT-116, running text, read-out: IC50 HCT-116.

For the molecule `COc1ccc(/C=C\c2cc(OC)c(OC)c(OC)c2)cc1OS(N)(=O)=O` [Compound A1-1, (Z)-3,4,5-trimethoxy-4′-methoxy-3′-sulfamate stilbene], the half-inhibitory concentration (IC50) in [1] (MKN-45, 72 h, CCK-8, 72 h) was 599 nM; in series [1] (MKN-45, running text) it was less than 600 nM; at Arylsulfatase, 6.16 µM; in [3] (setting [8]), 458 nM; in series [3] (setting [9]) it was 340 nM; in the series with Tubulin, 6.6 µM. The IC50 in series [4] (setting [10]) is 335 nM; in series [4] (setting [11]) it was less than 1000 nM; in series [5] (MGC-803, 72 h, CCK-8, 72 h) it was 298 nM; in series [5] (MGC-803, running text), less than 600 nM; in series [6] (setting [12]), 481 nM; in series [6] (A549, read-out: IC50 A549) it was less than 500 nM. Besides, the IC50 in series [7] (setting [13]) and in series [7] (setting [14]) was 222 nM throughout. The tumor observation entry in the series on sarcoma S180 was “shrinking trend”. In addition, the “Inhibition rate (tumor weight)” value in the series with sarcoma S180 turned out to be 42%. In addition, the 50% lethal dose (LD50) at 14 days in series [2] came to 106 mg/kg.
In the case of `COc1ccc(/C=C/c2cc(OC)c(OC)c(OC)c2)cc1OS(N)(=O)=O` [Compound A1-2, (E)-3,4,5-trimethoxy-4′-methoxy-3′-sulfamate stilbene], the IC50 in series [1] (MKN-45, 72 h, CCK-8, 72 h) was 10500 nM; on Arylsulfatase, 12.9 µM; in [3] (setting [8]), 4500 nM; in the series on Tubulin it was 55.7 µM; in [4] (setting [10]) it was 870 nM; in series [4] (setting [11]), less than 1000 nM. Moreover, the IC50 in [5] (MGC-803, 72 h, CCK-8, 72 h) stood at 2980 nM; in [6] (setting [12]), 11400 nM; in series [7] (setting [13]) it was 1570 nM.
For the molecule `CCOc1ccc(/C=C\c2cc(OC)c(OC)c(OC)c2)cc1OS(N)(=O)=O` [Compound A2-1, (Z)-3,4,5-trimethoxy-4′-ethoxy-3′-sulfamate stilbene], the IC50 in series [1] (MKN-45, 72 h, CCK-8, 72 h) was 325 nM; in [1] (MKN-45, running text) it was less than 500 nM; in [3] (setting [8]) it was 480 nM; in [3] (setting [9]), 480 nM; in series [3] (listed as (Z)-3,4,5-trimethoxy-4′-ethoxy-3′-aminosulfamatestilbene, read-out: IC50 HeLa), less than 500 nM; in series [4] (setting [10]), 412 nM. Also, the IC50 was less than 1000 nM in series [4] (setting [11]); less than 500 nM in [4] (listed as (Z)-3,4,5-trimethoxy-4′-ethoxy-3′-aminosulfamatestilbene); 267 nM in series [5] (MGC-803, 72 h, CCK-8, 72 h); less than 500 nM in series [5] (MGC-803, running text); 229 nM in [6] (setting [12]); less than 500 nM in [6] (A549, read-out: IC50 A549). Also, the IC50 is 446 nM in series [7] (setting [13]); 446 nM in series [7] (setting [14]); less than 500 nM in [7] (listed as (Z)-3,4,5-trimethoxy-4′-ethoxy-3′-aminosulfamatestilbene, read-out: IC50 HCT-116). Also, the tumor observation entry in the series with sarcoma S180 was “shrinking trend”. Also, in the series on sarcoma S180, the “Inhibition rate (tumor weight)” value came out at 40%. The molecule further yielded an LD50 at 14 days in [2] of 101 mg/kg.
Take `COc1cc(/C=C\c2ccc(OC(F)F)c(OS(N)(=O)=O)c2)cc(OC)c1OC` [Compound A3-1, (Z)-3,4,5-trimethoxy-4′-difluoromethoxy-3′-sulfamate stilbene]: the melting point was in the range of 161.6 to 162.9 °C. The IC50 in series [1] (MKN-45, 72 h) was determined as 9000 nM. The IC50 on Arylsulfatase is 4.64 µM. Moreover, the IC50 in [3] (Homo sapiens, HeLa, 72 h, read-out: IC50 Hela) is 7820 nM. Further, the IC50 with Tubulin stood at 1.8 µM. Also, the half-maximal inhibitory concentration (IC50) in [4] (Homo sapiens, HepG2, 72 h) was determined as 4800 nM. Besides, the 50% inhibitory concentration (IC50) in series [5] (MGC-803, 72 h) was determined as 12500 nM. The IC50 in series [6] (A549, 72 h, read-out: IC50 A549) came out at 5210 nM. Besides, the half-inhibitory concentration (IC50) in series [7] (Homo sapiens, HCT-116, 72 h, read-out: IC50 HTC116) came out at 9110 nM.
